Values quoted from earlier work, collected in US20190070136A1 (ASPIRO PHARMA LIMITED, priority 2017, published 2019).

O=NN(CCCl)C(=O)NCCCl [Carmustine, 1,3-bis (2-chloroethyl)-1-nitrosourea]
Log P: 1.53
